Ki data for 15 compounds are collected here from ChEMBL document CHEMBL1132745, “Diphenylsulfone muscarinic antagonists: piperidine derivatives with high M2 selectivity and improved potency” (Bioorg Med Chem Lett, 2000).

Test [1] concerns the target Muscarinic acetylcholine receptor M3 (Homo sapiens, UniProt P20309). In words: Binding affinity against Muscarinic acetylcholine receptor M3.
In test [2] the target is T1, Muscarinic acetylcholine receptor M1 (Homo sapiens, UniProt P11229).
T1 sequence (P11229 whole entry): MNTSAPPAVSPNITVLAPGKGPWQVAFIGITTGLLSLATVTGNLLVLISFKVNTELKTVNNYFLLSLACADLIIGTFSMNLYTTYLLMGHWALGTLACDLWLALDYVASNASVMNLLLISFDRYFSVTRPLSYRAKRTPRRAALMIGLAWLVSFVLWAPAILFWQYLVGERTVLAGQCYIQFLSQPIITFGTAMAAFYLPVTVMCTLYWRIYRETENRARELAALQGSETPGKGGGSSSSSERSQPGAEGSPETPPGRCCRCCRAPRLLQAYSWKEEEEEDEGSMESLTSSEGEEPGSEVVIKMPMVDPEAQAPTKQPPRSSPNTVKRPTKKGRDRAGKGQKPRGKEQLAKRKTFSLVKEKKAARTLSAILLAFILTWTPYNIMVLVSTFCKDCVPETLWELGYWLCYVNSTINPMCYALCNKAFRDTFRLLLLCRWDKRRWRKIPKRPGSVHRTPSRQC
As to the kind of experiment: Binding affinity against Muscarinic acetylcholine receptor M1.

Test [3] addresses T2, Muscarinic acetylcholine receptor M2 (Homo sapiens, UniProt P08172).
T2 sequence (P08172 whole entry): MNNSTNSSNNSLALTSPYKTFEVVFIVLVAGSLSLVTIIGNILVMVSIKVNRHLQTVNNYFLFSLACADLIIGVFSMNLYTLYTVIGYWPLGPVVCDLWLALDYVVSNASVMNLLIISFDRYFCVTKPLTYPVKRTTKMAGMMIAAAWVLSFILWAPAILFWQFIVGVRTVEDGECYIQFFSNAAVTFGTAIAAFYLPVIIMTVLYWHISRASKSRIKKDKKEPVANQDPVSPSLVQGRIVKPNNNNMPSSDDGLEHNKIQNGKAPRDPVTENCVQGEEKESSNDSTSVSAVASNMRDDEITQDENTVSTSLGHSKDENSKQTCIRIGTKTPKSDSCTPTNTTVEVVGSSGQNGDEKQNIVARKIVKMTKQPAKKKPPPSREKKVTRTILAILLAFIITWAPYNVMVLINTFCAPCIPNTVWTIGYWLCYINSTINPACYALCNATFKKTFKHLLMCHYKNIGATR
In words: Binding affinity against Muscarinic acetylcholine receptor M2.

Test [4] deals with T3, Muscarinic acetylcholine receptor M4 (Homo sapiens, UniProt P08173).
T3 sequence (P08173 whole entry): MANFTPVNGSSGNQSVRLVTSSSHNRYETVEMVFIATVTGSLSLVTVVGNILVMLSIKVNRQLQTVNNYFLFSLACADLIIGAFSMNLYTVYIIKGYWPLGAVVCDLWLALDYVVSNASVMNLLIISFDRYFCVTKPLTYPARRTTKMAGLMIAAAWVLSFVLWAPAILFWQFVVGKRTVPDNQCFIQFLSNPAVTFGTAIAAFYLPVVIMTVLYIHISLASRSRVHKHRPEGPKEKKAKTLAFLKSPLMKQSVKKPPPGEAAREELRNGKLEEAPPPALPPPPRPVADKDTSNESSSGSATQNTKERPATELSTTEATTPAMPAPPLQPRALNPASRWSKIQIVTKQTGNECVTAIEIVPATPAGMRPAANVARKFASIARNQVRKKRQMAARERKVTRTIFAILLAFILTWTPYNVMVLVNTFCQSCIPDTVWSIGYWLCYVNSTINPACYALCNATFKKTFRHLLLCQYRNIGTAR
In words: Binding affinity against Muscarinic acetylcholine receptor M4.

Test [5] deals with T4, Muscarinic acetylcholine receptor M5 (Homo sapiens, UniProt P08912).
T4 sequence (P08912 whole entry): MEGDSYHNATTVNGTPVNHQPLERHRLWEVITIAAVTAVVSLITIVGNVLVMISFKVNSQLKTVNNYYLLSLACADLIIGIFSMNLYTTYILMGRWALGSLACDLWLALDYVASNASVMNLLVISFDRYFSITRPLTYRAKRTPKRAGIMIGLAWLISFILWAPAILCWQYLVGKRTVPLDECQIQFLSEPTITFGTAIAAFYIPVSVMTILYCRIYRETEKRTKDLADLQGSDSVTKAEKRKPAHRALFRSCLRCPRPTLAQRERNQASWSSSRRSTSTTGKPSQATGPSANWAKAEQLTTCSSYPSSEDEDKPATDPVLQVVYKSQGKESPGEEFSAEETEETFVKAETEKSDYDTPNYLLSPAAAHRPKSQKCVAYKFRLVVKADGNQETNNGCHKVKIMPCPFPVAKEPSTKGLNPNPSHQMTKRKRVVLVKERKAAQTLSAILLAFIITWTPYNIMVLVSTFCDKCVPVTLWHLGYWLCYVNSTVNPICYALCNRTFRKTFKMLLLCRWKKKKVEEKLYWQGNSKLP
In words: The compound was tested for the binding affinity against Muscarinic acetylcholine receptor M5.

Structures are written as SMILES.

What is called Ki is the dissociation constant of the complex between target and ligand, obtained from inhibition or displacement.

Sequence of Muscarinic acetylcholine receptor M3 (P20309 whole entry): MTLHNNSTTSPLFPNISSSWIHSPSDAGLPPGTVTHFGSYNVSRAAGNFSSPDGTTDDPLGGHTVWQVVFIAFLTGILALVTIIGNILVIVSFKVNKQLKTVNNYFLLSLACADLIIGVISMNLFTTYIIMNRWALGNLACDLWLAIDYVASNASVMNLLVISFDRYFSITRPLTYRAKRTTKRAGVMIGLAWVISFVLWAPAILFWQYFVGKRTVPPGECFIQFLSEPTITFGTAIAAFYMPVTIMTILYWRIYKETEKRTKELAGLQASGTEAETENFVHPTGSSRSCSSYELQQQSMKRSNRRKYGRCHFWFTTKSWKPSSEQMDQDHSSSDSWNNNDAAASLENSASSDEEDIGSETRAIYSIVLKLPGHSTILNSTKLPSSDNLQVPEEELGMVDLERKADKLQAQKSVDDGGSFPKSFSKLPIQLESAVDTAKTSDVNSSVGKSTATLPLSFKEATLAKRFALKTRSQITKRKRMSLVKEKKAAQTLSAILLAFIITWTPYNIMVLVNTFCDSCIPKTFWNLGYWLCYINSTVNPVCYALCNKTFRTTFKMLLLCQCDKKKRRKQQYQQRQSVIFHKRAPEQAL

As for `COc1ccc([S@@+]([O-])c2ccc(C(C#N)C3CCN(C4CCCCC4)CC3)cc2)cc1` (some centres not stated), the Ki turned out to be 37 nM in test [1], 113 nM in test [2], 7.67 nM in test [3] and 12.7 nM in test [4].
Consider `C=C(c1ccc(Sc2ccc(OC)cc2)cc1)C1CCN(C2CCCCC2)CC1`, for which the values for the Ki in test [2] and in test [3] were 4.4 nM and 0.37 nM, respectively.
Turning to `COc1ccc([S@+]([O-])c2ccc(C(C#N)C3CCN(C4CCCCC4)CC3)cc2)cc1` (some centres not stated), the Ki in test [1] is 58.8 nM; in test [2], 136 nM; in test [3], 7.14 nM; in test [4], 45.1 nM.
In the case of `COc1ccc([S@@+]([O-])c2ccc(C(C#N)N3CCN(C4CCCCC4)CC3)cc2)cc1` (some centres not stated), the Ki in test [5] worked out at 309 nM; in test [1], 29.4 nM; in test [2], 112 nM; in test [3], 2.78 nM; in test [4], 14.8 nM.
Regarding `C=C(c1ccc([S@+]([O-])c2ccc(OC)cc2)cc1)C1CCN(C2CCCCC2)CC1`, the Ki amounted to 0.38 nM in test [1], 2.14 nM in test [2], 0.057 nM in test [3] and 0.32 nM in test [4].
On the same counts, the results for `C=C(c1ccc(S(=O)(=O)c2ccc(OC)cc2)cc1)C1CCN(C2CCCCC2)CC1` are 0.48 nM, 2.8 nM, 0.17 nM and 0.33 nM.
Take `COc1ccc(S(=O)(=O)c2ccc(C(C#N)N3CCN(C4CCCCC4)CC3)cc2)cc1` (configuration not stated): the Ki in test [1] is 6.8 nM; in test [2], 71.8 nM; in test [3], 7.3 nM; in test [4] it was 18.6 nM.
Taken in the same sequence, the figures for `COc1ccc([S+]([O-])c2ccc(C(C)N3CCN(C4CCCCC4)CC3)cc2)cc1` (configuration not stated) were 0.97 nM, 6 nM, 1 nM and 2.2 nM.
On the same counts, the results for `COc1ccc([S@+]([O-])c2ccc(C(=O)C3CCN(C4CCCCC4)CC3)cc2)cc1` are 20.1 nM, 69.5 nM, 10.8 nM and 15.2 nM.
`COc1ccc([S@+]([O-])c2ccc(C(C#N)N3CCN(C4CCCCC4)CC3)cc2)cc1` (some centres not stated): the Ki turned out to be 253 nM in test [2], 17.3 nM in test [3] and 18.4 nM in test [4].
Consider `COc1ccc(S(=O)(=O)c2ccc(C(=O)C3CCN(C4CCCCC4)CC3)cc2)cc1`, for which the Ki in test [1] was 13.8 nM; in test [2], 31.1 nM; in test [3] it was 3.07 nM; in test [4] it was 9.05 nM.
On the same counts, the results for `C=C(c1ccc([S@@+]([O-])c2ccc(OC)cc2)cc1)C1CCN(C2CCCCC2)CC1` are 0.13 nM, 0.68 nM, 0.03 nM and 0.09 nM.
As for `COc1ccc([S+]([O-])c2ccc(C(C)C3CCN(C4CCCCC4)CC3)cc2)cc1` (configuration not stated), the Ki in test [5] was found to be 1.66 nM; in test [1] it was 0.16 nM; in test [2], 0.53 nM; in test [3], 0.14 nM; in test [4] it was 0.07 nM.
In the case of `COc1ccc([S@@+]([O-])c2ccc(C(=O)C3CCN(C4CCCCC4)CC3)cc2)cc1`, the Ki worked out at 27.8 nM in test [1], 104 nM in test [2], 3.58 nM in test [3] and 17.9 nM in test [4].
In the case of `COc1ccc(S(=O)(=O)c2ccc(C(C#N)C3CCN(C4CCCCC4)CC3)cc2)cc1` (configuration not stated), the Ki stood at 16.4 nM in test [2] and 1.3 nM in test [3].
